Experimental data taken from patent US20220325301A1, “AUXOTROPHIC SELECTION METHODS” (AUXOLYTIC LTD, priority 2019, published 2022).

Experiments:
[1] = system: UMPS knockout H9 human embryonic stem cells (hESCs); assay: Lineage-specific auxotrophy during beta cell differentiation (GFP ratio in mCherry-off vs mCherry-on cells, fluorescence microscopy); format: cell-based; conditions: uridine withdrawal at day 12
Source text: As a proof of concept, UMPS knockout cells were engineered to express insulin and were differentiated to pancreatic progenitor cells using an appropriate method as described, for example, in Ma et al. (2018), Pagliuca et al. (2014), and/or Rezania et al. (2014) discussed and incorporated herein. The UMPS gene was knocked out in H9 human embryonic stem cells (hESCs) according to the methods described herein. A GFP-Luciferase expression construct under regulation of a constitutive promoter was integrated by homologous recombination into the HBB locus (see, for example, Dever, Daniel P., et al. “CRISPR/Cas9 β-globin gene targeting in human haematopoietic stem cells.” Nature 539.7629 (2016): 384-389, the contents of which are incorporated herein by reference in their entirety). […] Cells were monitored and assessed for mCherry and UMPS expression on subsequent days up to day 25. The differentiation protocol was followed with cells either in the continuous presence of uridine through day 18 or through the end of the culture period, or through only day 12 (during Stage 4). mCherry and UMPS expression were assessed. An mCherry on vs. off threshold was defined to identify UMPS expressing cells (given UMPS expression is coupled to mCherry) using thresholding based on fluorescence images. […]
Therefore, expression of GFP in mCherry negative cells, when uridine is present, was expected to be higher than the expression of GFP in mCherry negative cells when uridine is absent. […] The results are shown in Table 7, where the “Auxotrophy Metric” was calculated as the mean GFP ratio in uridine-withdrawn conditions divided by the mean GFP ratio in uridine-continued conditions: [(mean GFP(mCherry-Off)/mean GFP(mCherry-On)) uridine-withdrawn-conditions]/[(mean GFP(mCherry-Off)/mean GFP(mCherry-On)) uridine-continued conditions].

UMPS knockout cells [2] = assay: Selection of cells re-expressing UMPS in a UMPS-/- background (% mCherry+ by flow cytometry); format: cell-based; conditions: after 14 days in culture
Description: A construct (SEQ ID NO: 42) expressing mCherry and UMPS separated by a 2A linker sequence under control of a constitutive promoter (EF1a) delivered via DNA vector was inserted by electroporation into the CCR5 locus targeted using homologous recombination arms. Cells were grown in the presence of uridine to alleviate any selection pressure, then uridine was removed to select for cells successfully re-expressing UMPS. Cells were sorted by expression of mCherry using flow cytometry. After 14 days in culture, % mCherry+ cells was approximately 20% in the presence of uridine; % mCherry+ cells was approximately 90% in the absence of uridine.

UMPS knockout cells [3] = assay: Split auxotrophy: selection of dual transgene integration (CD19/mCherry flow cytometry); format: cell-based, human; conditions: day 16
Description: The UMPS locus is disrupted in the hESCs by electroporation of Cas9 RNP to insert an expression control sequence comprising a tissue-specific promoter into the genomic locus. The promoter will begin to instigate transcription due to interaction with endothelial tissue. For gene editing, hESCs are treated with 10 μm ROCK inhibitor (Y-27632) for 24 hours before electroporation. Cells at 70-80% confluence are harvested with ACCUTASE® solution (Life Technologies). 500,000 cells were used per reaction with a SpCas9 concentration of 150 μg/mL (Integrated DNA Technologies) and a Cas9:sgRNA molar ratio of 1:3 and electroporation performed in P3 Primary Cell solution (Lonza) in 16-well NUCLEOCUVETTE™ Strips in the 4D NUCLEOFECTOR system (Lonza). Immediately after electroporation, cells are transferred into one well of a MATRIGEL® protein mixture (Corning, Inc.)-coated 24 well plate containing 500 μl of mTeSR™ media (STEMCELL Technologies) with 10 μM Y-27632. Media was changed 24 hours after editing and Y-27632 is removed 48 hours after.
Independent functional domains of UMPS, i.e. OPRT and ODC, are reintroduced into UMPS knockout cells according to Example 2 using two separate vectors. A first homologous recombination donor vector carrying OPRT and mCherry (SEQ ID NO: 43) comprises sequence encoding OPRT (SEQ ID NO: 4, encoding amino acid sequence of SEQ ID NO: 5), 2A linker (SEQ ID NO: 19, SEQ ID NO: 21, or SEQ ID NO: 23, encoding amino acid sequences of SEQ ID NO: 20, SEQ ID NO: 22, and SEQ ID NO: 24, respectively), and sequence encoding mCherry fluorescent protein (SEQ ID NO: 34 or SEQ ID NO: 35, each encoding amino acid sequence of SEQ ID NO: 36). Homologous recombination donor vector carrying ODC and CD19 (SEQ ID NO: 44) comprises sequence encoding tCD19 (SEQ ID NO: 37, encoding amino acid sequence of SEQ ID NO: 38), 2A linker, and sequence encoding ODC (SEQ ID NO: 6, encoding amino acid sequence of SEQ ID NO: 7). Expression of OPRT and ODC constructs can be driven by a eukaryotic promoter such as EF1a (SEQ ID NO: 31 or SEQ ID NO: 32). Homologous recombination vectors are co-targeted for integration into safe harbor locus CCR5 (using, for example, CCR5 left and right homology arms selected from SEQ ID NOs: 11-15 as described herein). Homologous recombination vectors can further include termination signals such as a bGH-PolyA termination signal (SEQ ID NO: 39 or SEQ ID NO: 40). Cells are cultured with and without uridine, and the percent of cells expressing both CD19 and mCherry (CD19+/mCherry+) is measured by flow cytometry over time.

INS-mCherry-UMPS: tricistronic construct expressing insulin, mCherry and UMPS under endogenous insulin regulatory control sequences, integrated into the insulin locus
Auxotrophy Metric (mean GFP ratio mCherry-Off/mCherry-On, uridine-withdrawn divided by uridine-continued) ([1]; culture day 12): 0.9904 | Auxotrophy Metric (mean GFP ratio mCherry-Off/mCherry-On, uridine-withdrawn divided by uridine-continued) ([1]; culture day 18): 0.9827 | Auxotrophy Metric (mean GFP ratio mCherry-Off/mCherry-On, uridine-withdrawn divided by uridine-continued) ([1]; culture day 25): 0.7261

SEQ ID NO: 42: construct expressing mCherry and UMPS separated by a 2A linker under constitutive EF1a promoter, inserted into the CCR5 locus of UMPS knockout cells
% mCherry+ cells (UMPS knockout cells [2]; in the absence of uridine): approximately 90% | % mCherry+ cells (UMPS knockout cells [2]; in the presence of uridine): approximately 20%

Split UMPS: two homologous recombination donor vectors, OPRT and mCherry (SEQ ID NO: 43) and ODC and CD19 (SEQ ID NO: 44), co-targeted to CCR5
% CD19+ only (UMPS knockout cells [3]; +Uridine): 1.2% | % CD19+/mCherry+ (UMPS knockout cells [3]; +Uridine): 0.3% | % CD19-/mCherry- (UMPS knockout cells [3]; +Uridine): 92.9% | % mCherry+ only (UMPS knockout cells [3]; +Uridine): 5.6% | % CD19+ only (UMPS knockout cells [3]; No Uridine): 0.1% | % CD19+/mCherry+ (UMPS knockout cells [3]; No Uridine): 94.7% | % CD19-/mCherry- (UMPS knockout cells [3]; No Uridine): 0.1% | % mCherry+ only (UMPS knockout cells [3]; No Uridine): 5.1%
